Reference: ChEMBL document CHEMBL4689842, “EUbOPEN Chemogenomics Library wave 1” (2021)
Where a SMILES comes first, the peptide text is derived from it. [ ]: non-standard residue; d: D form. Arg(Me) = CNC(=N)NCCC[C@H](N)C(=O)O; d4Pal = N[C@H](Cc1ccncc1)C(=O)O; azaGly = NNC(=O)O

What was measured:
Assay type in all cases: toxicity, cell-based
HEK-293T = test: Incucyte cell viability with HEK293T; conditions: human, 10 µM, compound concentration 10 uM
Fibroblast = test: Incucyte cell viability with human fibroblast; conditions: 10 µM, compound concentration 10 uM
U2OS = test: Incucyte cell viability with U2OS; conditions: human, 10 µM, compound concentration 10 uM
[1] = 0 h, replicate number 1, timepoint 0 hours
[2] = 6 h, replicate number 1, timepoint 6 hours
[3] = 12 h, replicate number 1, timepoint 12 hours
[4] = 12 h, replicate number 2, timepoint 12 hours
[5] = 18 h, replicate number 1, timepoint 18 hours
[6] = 24 h, replicate number 1, timepoint 24 hours
[7] = 0 h, replicate number 2, timepoint 0 hours
[8] = 6 h, replicate number 2, timepoint 6 hours
[9] = 18 h, replicate number 2, timepoint 18 hours
[10] = 24 h, replicate number 2, timepoint 24 hours
Also: filed as whole numbers so only -1 and 0 and 1 occur.

Compound | Growth Rate (HEK-293T; [1]) | Growth Rate (HEK-293T; [2]) | Growth Rate (HEK-293T; [3]) | Growth Rate (HEK-293T; [5]) | Growth Rate (HEK-293T; [6]) | Growth Rate (Fibroblast; [1]) | Growth Rate (Fibroblast; [2]) | Growth Rate (Fibroblast; [3]) | Growth Rate (Fibroblast; [5]) | Growth Rate (Fibroblast; [6]) | Growth Rate (U2OS; [8]) | Growth Rate (U2OS; [3]) | Growth Rate (U2OS; [5]) | Growth Rate (U2OS; [6]) | Growth Rate (Fibroblast; [10]) | Growth Rate (U2OS; [4]) | Growth Rate (U2OS; [1]) | Growth Rate (U2OS; [2]) | Growth Rate (U2OS; [9]) | Growth Rate (U2OS; [10]) | also measured
CNC(=N)NCCC[C@H](NC(=O)[C@H](CC(C)C)NC(=O)NNC(=O)[C@H](Cc1ccccc1)NC(=O)[C@H](CO)NC(=O)[C@H](CC(N)=O)NC(=O)[C@@H](Cc1ccncc1)NC(=O)[C@H](N)Cc1ccc(O)cc1)C(=O)N[C@@H](Cc1ccccc1)C(N)=O [KISS1-305] (H-[dY][d4Pal]NSF[azaGly]L[Arg(Me)]F-NH2) | 0 | 0 | 1 | 0 | 0 | 0 | 0 | 0 | 0 | 0 | 1 | 1 | 0 | 0 |  |  |  |  |  |  | Growth Rate (HEK-293T; [4]): 0; Growth Rate (U2OS; [7]): 0
C[S+]([O-])c1ccc(-c2nc(-c3ccncc3)c(-c3ccc(F)cc3)[nH]2)cc1 (stereo unspecified) [SB-203580] | 0 | 0 | 0 | 0 | 0 | 0 |  |  |  |  | 0 |  | 1 | 1 | 1 | 1 |  |  |  |  | Growth Rate (Fibroblast; [8]): 0; Growth Rate (Fibroblast; [4]): 1; Growth Rate (Fibroblast; [9]): 1
COc1cc(-c2cn([C@H]3CCc4c(F)cccc4N(CC(F)(F)F)C3=O)nn2)ccc1-n1cnc(C)c1 | 0 | 0 | 0 | 1 | 1 | 0 | 0 | 1 | 1 | 1 | 1 | 0 | 0 | 0 | 0 | 1 | 0 | 0 | 1 | 1 | Growth Rate (HEK-293T; [7]): 1; Growth Rate (HEK-293T; [10]): 0; Growth Rate (Fibroblast; [4]): 0; Growth Rate (Fibroblast; [9]): 0
CNCCC(Oc1ccc(C(F)(F)F)cc1)c1ccccc1.Cl (stereo unspecified) [FLUOXETINE HYDROCHLORIDE] |  | 0 | 0 | 0 | 0 | 0 | 1 | 0 | 1 | 1 | 1 |  | 1 | 1 | 0 | 1 |  |  |  |  | Growth Rate (HEK-293T; [7]): 0; Growth Rate (HEK-293T; [8]): 1; Growth Rate (HEK-293T; [4]): 1; Growth Rate (Fibroblast; [8]): 0; Growth Rate (Fibroblast; [9]): 0
Cc1cccc([C@H](C)c2c[nH]cn2)c1C.Cl [DEXMEDETOMIDINE HYDROCHLORIDE] | 0 | 0 | 0 | 0 | 0 | 0 |  |  |  | 1 | 0 | 1 | 0 | 1 |  |  | 0 |  | 1 |  | Growth Rate (Fibroblast; [4]): 1; Growth Rate (Fibroblast; [9]): 1
C[C@@]1(Cc2ccc(C#N)cc2)C(=O)N(c2cc(Cl)cc(Cl)c2)c2ncc(C(=O)NC3(c4nc(C5CCC5)no4)CC3)n21 [BI 9446] | 0 | 0 | 0 | 0 | 0 | 0 | 0 | 0 | 0 | 0 | 0 | 1 | 1 | 1 |  | 0 | 0 |  | 0 | 0 | 
CC[C@@H]1[C@H](F)C(=O)N[C@@H]1COc1nccc2cc(C(N)=O)c(OC)cc12 [ZIMLOVISERTIB] | 0 |  |  |  |  |  | 0 | 0 | 0 | 0 | 1 | 0 | 0 | 0 |  |  | 0 | 0 |  |  | Growth Rate (HEK-293T; [4]): 1; Growth Rate (HEK-293T; [10]): 1; Growth Rate (Fibroblast; [7]): 0
CCCc1nc2c(C)cc(-c3nc4ccccc4n3C)cc2n1Cc1ccc(-c2ccccc2C(=O)O)cc1 | 0 | 0 | 0 | 0 | 0 | 0 | 1 | 0 | 1 | 0 | 1 | 1 | 1 | 1 |  |  | 0 |  |  | 0 | Growth Rate (Fibroblast; [4]): 1
CCC(=O)Nc1cccc(Oc2nc(Nc3ccc(N4CCN(C)CC4)cc3OC)ncc2Cl)c1 |  | 0 | 0 | 0 | 0 |  |  | 0 | 0 | 0 | 1 | 0 | 0 | 0 |  |  | 0 | 0 | 1 |  | 
CCn1cc(-c2cccc(C(F)(F)F)c2)c2sc(C(=N)NC3CCS(=O)(=O)CC3)cc2c1=O |  | 0 | 0 | 0 | 0 |  | 0 | 0 | 0 | 0 |  | 0 | 0 | 0 | 1 |  |  | 1 | 1 | 1 | Growth Rate (U2OS; [7]): 0
CC(=O)OCC(=O)[C@@]1(O)CC[C@H]2[C@@H]3CCC4=CC(=O)CC[C@]4(C)[C@@]3(F)[C@@H](O)C[C@@]21C [FLUDROCORTISONE ACETATE] | 0 | 1 | 1 | 1 | 1 | 0 | 0 | 1 | 1 | 1 | 0 |  | 1 | 1 |  | 1 | 0 |  |  |  | Growth Rate (HEK-293T; [8]): 0; Growth Rate (HEK-293T; [10]): 0; Growth Rate (U2OS; [7]): 1
CC(=O)C1=C(C)N(c2cccc(C(F)(F)F)c2)C(=O)N[C@H]1c1ccc(C#N)nc1 [BAY-677] | 0 |  |  | 1 | 1 | 0 | 0 | 0 | 0 | 0 | 0 | 1 | 1 | 0 |  | 0 | 0 | 1 | 0 |  | Growth Rate (Fibroblast; [8]): 1; Growth Rate (U2OS; [7]): 1
CC1(C)CCC(C)(C)c2cc(C3(c4ccc(C(=O)O)cc4)OCCO3)ccc21 | 0 |  | 1 | 1 | 1 | 0 | 1 | 1 | 1 | 1 | 0 | 1 | 1 | 1 |  | 0 | 0 |  | 0 |  | Growth Rate (HEK-293T; [8]): 0
N#Cc1ccc(NC(=O)Nc2ccccc2Br)c2nn[nH]c12 | 0 |  | 1 | 1 | 1 | 0 | 1 | 1 | 1 | 1 | 1 | 1 | 1 | 1 |  |  | 0 |  |  |  | Growth Rate (HEK-293T; [8]): 1; Growth Rate (Fibroblast; [7]): 1; Growth Rate (U2OS; [7]): 1
Cc1nc(C2CCN(C(=O)c3ccc(OC(F)(F)F)cc3N)CC2)c2ncc(N3CCN(C)CC3)cc2n1 [BAY-693] | 0 |  |  |  |  | 1 | 1 | 1 | 1 | 1 | 1 | 0 | 0 | 0 |  | 1 | 0 | 0 | 1 | 1 | Growth Rate (HEK-293T; [7]): 1; Growth Rate (HEK-293T; [10]): 1; Growth Rate (Fibroblast; [7]): 0
CCCCN1CCC(COC(=O)c2cc(Cl)c(N)c3c2OCCO3)CC1.Cl | 1 | 0 | 0 | 0 | 0 | 0 |  |  | 1 | 1 | 0 | 1 | 1 | 1 | 0 | 0 | 1 | 1 | 0 | 0 | Growth Rate (HEK-293T; [7]): 0; Growth Rate (HEK-293T; [8]): 1; Growth Rate (HEK-293T; [4]): 1; Growth Rate (HEK-293T; [9]): 1; Growth Rate (Fibroblast; [8]): 0; Growth Rate (Fibroblast; [4]): 0; Growth Rate (Fibroblast; [9]): 0
COc1ccc(CNC(=O)c2cc(-c3cncc(Cl)c3)cnc2-c2ccccn2)nc1OC [MK-1064] | 0 | 0 | 1 | 0 | 1 | 0 | 0 | 0 | 1 | 0 | 0 | 1 | 1 | 1 | 1 |  | 0 |  | 0 |  | Growth Rate (HEK-293T; [4]): 0; Growth Rate (HEK-293T; [10]): 0
Cc1nc(C(=O)N2CCC[C@H]2Cc2nnc(-c3ccccc3)o2)c(-c2ccccc2F)s1 |  | 0 | 0 | 0 | 0 | 1 | 0 | 0 | 1 | 0 |  | 0 | 1 | 0 | 1 |  |  | 0 |  | 1 | Growth Rate (HEK-293T; [7]): 0
C[C@@H](c1cccc(CN)c1)n1cc(Cl)cc(C(N)=O)c1=N.Cl | 0 |  |  |  | 1 |  | 1 | 1 | 1 | 1 | 0 | 1 | 1 | 1 | 0 | 0 |  | 1 | 0 | 0 | Growth Rate (HEK-293T; [7]): 1; Growth Rate (Fibroblast; [7]): 0; Growth Rate (Fibroblast; [8]): 0; Growth Rate (Fibroblast; [4]): 0; Growth Rate (Fibroblast; [9]): 0; Growth Rate (U2OS; [7]): 1
